{"source": "patent US6451787B1", "about": "“Remedies for ocular diseases” (Cephalon, Inc., priority 1998, dated 2002)", "key": {"[1]": {"system": "retinal gangliocyte in a retinal ischemia—reperfusion model", "experiment": "Effects on the retina subjected to the ischemia—reperfusion treatment", "assay_type": "in vivo, rat", "excerpt": "1. Effects on the Retina Subjected to the Ischemia—Reperfusion Treatment\nIt has been reported that brain-derived neurotrophic factor (it is referred to as BDNF hereinafter) which is a neurotrophic factor has a protective effect against gangliocytic death caused by retinal ischemia (Invest. Ophthalmol. Vis. Sci. 35, 907-915 (1994)).\nThus, according to the method described in this reference, the effects of the compounds on retinal gangliocyte in a retinal ischemia—reperfusion model were studied.\nUnder anesthesia with a mixture of Ketalar and Celactal, the conjunctiva of a male Spraugue—Dawley rat (300-450 g) was dissected to expose the optic nerve and then the retina was subjected to an ischemic state by ligating the optic nerve with a suture. Sixty minutes after the ischemia, the suture was taken out to reperfuse the retina with the blood by allowing the circulation. Seven days after the reperfusion, the eye bulb was enucleated and then immobilized with paraformaldehyde, and after embedding it in paraffin, the transverse paraffin sections of the eye bulb with 3 μm of the thickness were prepared by slicing the eye bulb beginning from the point of exposure of the optic nerve with 60 μm of each interval. These sections were stained with hematoxylin—eosin and photographs were taken for the section in which the retinal part at the distance of approximately 1 mm from the optic disc to either direction, left or right, is included to measure the number of the cells contained in the layer of gangliocyte.\nHere, the compound was dissolved into polyethylene glycol 660 hydroxystearate and injected in the volume of 1 μl into the hyaloid body two day before the creation of the ischemic state."}, "[2]": {"system": "retinal disturbance induced by injecting kainic acid into the hyaloid body", "experiment": "Effects on the retina from the eye treated with kainic acid", "assay_type": "in vivo, rat", "settings": "for Thickness of the inner plexiform layer: injected two days before, at the same time as and one day after kainic acid, Normal 47.5, Control 20.8; for Thickness of the inner plexiform layer / Number of the cells in the layer of gangliocyte: 7 days after; for Number of the cells in the layer of gangliocyte: Normal 64.2, Control 36.8", "method": "2. Effects on the Retina From the Eye Treated with Kainic Acid\nIt has been reported that when kainic acid, that is a neurotoxin, is injected into the hyaloid body, the inner plexiform layer becomes thinner because of synaptic collapse caused by cell death of amacrine cell or the number of the cells contained in the layer of gangliocyte decreases because of apoptosis happening to those cells (Neurochem. Int., 31, 251-260 (1997)).\nThen, according to the method described in this reference, the effects of the compound on the retinal disturbance induced by injecting kainic acid into the hyaloid body were studied.\nTo a male Sprague—Dawley rat (180-250 g) under anesthesia with pentobarbital, a solution of kainic acid in polyethylene glycol 660 hydroxystearate (1 mmol/L) was injected into the hyaloid bodies in both of the eyes in the amount of 5 μl under observation with a stereoscopic microscopy. […]. These sections were stained with hematoxylin—eosin and photographs were taken for the sections in which the retinal part at the distance of approximately 1 mm from the optic disc to either direction, left or right, is included to measure the thickness of the inner plexiform layer and the number of the cells contained in the layer of gangliocyte.\nThe compound was dissolved into polyethylene glycol 660 hydroxystearate and then injected into the hyaloid bodies two days before, at the same time as and one day after the kainic acid treatment in the volume of 5 μl each."}}, "data": [{"smiles": "CCSCc1ccc2c(c1)c1c3c(c4c5cc(CSCC)ccc5n5c4c1n2[C@H]1C[C@](O)(C(=O)OC)[C@]5(C)O1)CNC3=O", "note": "[Compound A]", "values": [{"measurement": "Number of the cells in the layer of gangliocyte recovered to the level of that for Normal Group (1)", "setting": "[1]; 3 μg injected, ischemia—reperfusion treatment", "value": 70.9, "unit": "%"}, {"measurement": "Number of the cells in the layer of gangliocyte", "setting": "[1]; 3 μg/eye injected into the hyaloid body two days before 60 min ischemia, 7 days after reperfusion, Normal Group 38.8, Control Group 20.5", "value": 27.5, "unit": "cells/mm"}, {"measurement": "Protective effect on neurocyte disturbance of the retina caused by the ischemia—reperfusion treatment", "setting": "[1]; conclusion in words", "value": "superior protective effect"}, {"measurement": "Number of the cells in the layer of gangliocyte recovered to the level of that for Normal group (2)", "setting": "[2]; 3 μg injected, kainic acid treatment", "value": 80.7, "unit": "%"}, {"measurement": "Thickness of the inner plexiform layer", "setting": "[2]; 3 μg/eye", "value": 28.8, "unit": "μm"}, {"measurement": "Number of the cells in the layer of gangliocyte", "setting": "[2]; 3 μg/eye, kainic acid treatment", "value": 51.8, "unit": "cells/mm"}, {"measurement": "Thickness of the inner plexiform layer", "setting": "[2]; 30 μg/eye [sic]", "value": 23.8, "unit": "μm"}, {"measurement": "Number of the cells in the layer of gangliocyte", "setting": "[2]; 30 μg/eye [sic], kainic acid treatment", "value": 42.3, "unit": "cells/mm"}, {"measurement": "Protective effect against neurocyte disturbance of the retina caused by the kainic acid treatment", "setting": "[2]; conclusion in words", "value": "superior protective effect"}]}]}
